Patent US20090312277A1, “Compositions And Methods For Reversing Or Preventing Resistance Of A Cancer Cell To A Cytotoxic Agent” (priority 2004, published 2009)
Peptide text beside a SMILES is read from it. * marks the point of attachment. Cbz = O=C(OCc1ccccc1)*

Tests used:
Purified cathepsin L = biological target: T1, Purified cathepsin L (Homo sapiens, UniProt P07711); assay: Cathepsin L activity, fluorogenic substrate (CV-Cathepsin L Detection Kit); assay type: biochemical; settings: inhibitor 10 μM, 200 ng cathepsin L; positive control 4e+5 AU, negative control 0.75e+5 AU
T1 construct: purchased Biomol, Plymouth Meeting, Pa
T1 sequence (P07711 114-333, species assumed): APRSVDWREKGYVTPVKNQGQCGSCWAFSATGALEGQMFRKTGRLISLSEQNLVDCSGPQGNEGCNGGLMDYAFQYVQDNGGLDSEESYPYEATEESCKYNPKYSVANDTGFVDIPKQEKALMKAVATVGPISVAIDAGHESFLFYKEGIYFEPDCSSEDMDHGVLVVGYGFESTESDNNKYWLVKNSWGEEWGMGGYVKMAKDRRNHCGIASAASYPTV
Protocol: Cathepsin L activity was measured using a commercially available kit according to the manufacturer's procedure (CV-Cathepsin L Detection Kit; Biomol, Plymouth Meeting, Pa.). Purified cathepsin L (Biomol, Plymouth Meeting, Pa.) (200 ng) was incubated with each inhibitor (10 μM) in a 96 well plate for 15 min at room temperature in 100 μl of reaction buffer (100 mM sodium acetate pH 5, 1 mM EDTA (ethylenediaminetetraacetic acid), and 4 mM dithiothreitol). The protease inhibitors tested were: lactacystin and inhibitors of cathepsin L, B, S, and K. 100 μl of a fluorogenic substrate (CV-Cathepsin L Detection Kit; Biomol, Plymouth Meeting, Pa.) were added and incubated for an additional 30 min at room temperature. Fluorescence was measured in a plate reader (Victor Multilabel Counter, Perkin Elmer) at 380 nm excitation and […] emission wavelengths.

[1] = system: Drug-sensitive cells SKN-SH; assay: Prevention of development of doxorubicin resistance, viable cell count, SKN-SH; assay type: cell-based, human; settings: Dox 10^−9 M + inhibitor 10 μM
Excerpt: (§1) As discussed above, inhibition of cathepsin L enhanced drug response only in drug-resistant cells. Another aspect of the present invention was to determine whether treatment of drug-sensitive cancer cells with this drug combination prevents them from becoming drug resistant. […] After 4 days in culture, the surviving cells were subjected to the same treatment for an additional four days. The cells were then subjected to two subsequent treatments for four days with 2.5×10^−8 M doxorubicin with or without the cathepsin L inhibitor at 10 μM. The surviving cells were then treated with doxorubicin 5×10^−8 M doxorubicin with or without cathepsin L (10 μM) for four days. At the end of each incubation period, viable cells were counted.

[2] = system: Drug-sensitive cells Saos2; assay: Prevention of development of doxorubicin resistance, viable cell count, Saos2; assay type: cell-based; settings: Dox 10^−9 M + inhibitor 10 μM
Excerpt: as §1

[3] = system: SKN-SH doxorubicin-resistant cells; assay: Viable cell count of SKN-SH doxorubicin-resistant cells with other chemotherapeutic agents; settings: Homo sapiens, SK-N-SH, 72 h; for viability at 100 µM: read-out: number of viable cells, chemotherapeutic agent alone at 10^−4 M; for viability at 10 µM: read-out: number of viable cells, chemotherapeutic agent alone at 10^−5M; for viability at 1 µM: read-out: number of viable cells, chemotherapeutic agent alone at 10^−6 M; for viability at 0.1 µM: read-out: number of viable cells, chemotherapeutic agent alone at 10^−7M; for viability at 0.01 µM: read-out: number of viable cells, chemotherapeutic agent alone at 10^−8M
Protocol: SHN-SH cells were prepared in the manner described above. […] Viable cells were counted after 72 hours of incubation with the melphalan, etoposide, mitoxantrone, cyclophosphamide, and tamoxifen.

[4] = system: Doxorubicin resistant human neuroblastoma cells (SKN-SH/R); assay: Tumor growth of SKN-SH/R cells injected into nude mice; assay type: in vivo
Protocol: Doxorubicin resistant human neuroblastoma cells (SKN-SH/R) cells grown into 75 cm^2 flasks were harvested by trypsinization and centrifuged to remove trypsin. The pellet was then reconstituted in culture medium at 10^7 cell/ml. On day one, 100 μl (10^6 cells) were injected to the right flank of nude mice (5 per group) and after the tumor became palpable at day 11, mice were assigned to four groups: 1) controls (treated with the vehicle DMSO), 2) Dox. 1.5 mg/kg (treated with doxorubicin alone 1.5 mg/Kg), 3) iCL 30 mg/Kg (treated with cathepsin L inhibitor alone at 30 mg/Kg), and 4) Dox 1.5 mg/Kg+iCL 30 mg/Kg (treated with the combination of doxorubicin 1.5 mg/Kg and cathepsin L inhibitor 30 mg/Kg). Intraperetoneal injections were given on day 11, day 14, and day 17.

SKN-SH wild type cells = assay: MTT cytotoxicity assay, SKN-SH wild type cells; assay type: cell-based; settings: Homo sapiens, SK-N-SH, 96 h, read-out: IC50 of the cytotoxic agent alone
Protocol: (§2) Human neuroblastoma SKN-SH cells (ATCC Cat. No. HTB-11) were cultured in Dulbecco's Modified Eagles Medium (DMEM; Gibco, Grand Island, N.Y.) supplemented with 10% fetal bovine serum (FBS; Sigma-Aldrich, St. Louis, Mo.) at 37° C. in a 95% Air/5% CO2 atmosphere. Resistant cells to doxorubicin (SKN-SH/R) were selected by stepwise exposure to drug concentrations ranging from 10^−9 M through 10^−6 M over a time period of three months. The resulting cell line was subjected to treatment with the doxorubicin alone or in combination with: proteosome inhibitor (Lactacystin), cathepsin B inhibitor (L-3-trans-(Propylcarbamoyl)oxirane-2-carbonyl]-L-isoleucyl-L praline), cathespin L inhibitor (Z-Phe-Tyr(t-Bu)-diazomethylketone), cathespin K inhibitor (1,3-Bis(N-CBZ-Leu-NH)-2-propanonel,3 -Di(N-carbonbenzoyloxy-L-leucyl)amino acetone), or cathespin S inhibitor (Z-Phe-Leu-COCHO.H2O), (all available from Calbiochem-Novabiochem, San Diego) at 10 μM each to determine whether they affect cell response to doxorubicin.
(§3) Cytotoxic activity of doxorubicin and cysteine protease inhibitors were quantitatively determined by a calorimetric assay utilizing 3-(4,5-dimethyl-2-thiazolyl) 2,5-diphenyl tetrazolium bromide (MTT; Sigma-Aldrich, St. Louis, Mo.). […] The optical density of this solution was measured at 570 nm and the percentage of viable cells estimated by comparison with untreated control cells. […]

SKN-SH/R cells = assay: MTT cytotoxicity assay, doxorubicin-resistant neuroblastoma cells; assay type: cell-based; settings: Homo sapiens, SK-N-SH, 96 h, read-out: IC50 (concentration at which 50% of cells remained viable) of the cytotoxic agent alone, SKN-SH/R cells, agent alone (control cells), 96 hours, MTT
Protocol: as §2, §3

[5] = system: drug resistant osteosarcoma cells (Saos2-R); assay: Cell count of drug resistant osteosarcoma cells after siRNA or inhibitor and doxorubicin; assay type: cell-based
Excerpt: (§4) The human cathepsin L siRNA was designed in our laboratory by studying a cDNA sequence of the human cathepsin L gene (SEQ ID NO: 2). We selected a segment defined by nucleotide numbers 91-111, sent that sequence to a contract laboratory (Dharmacon, Lafayette, Colo.), which synthesized an siRNA molecule based on the aforementioned segment. The segment of the human cathepsin L cDNA we used was: […] (91-111) (SEQ ID NO: 2). On the day before transfection, 3×10^5 drug resistant osteosarcoma cells (Saos2-R) were seeded in 6-well plates and grown in 2.5 ml of DMEM supplemented with 10% FBS. After 24 hours in culture, 25 μl of 20 μM stock solution of siRNA duplexes were transfected into cells with GeneSilencer™ SiRNA Transfection Reagent Kit (Gene Therapy Systems, Inc., San Diego, Calif.). Briefly, adherent cells were transfected in 6 well plates. Cells were about 70% confluent. In one tube, 5 μl of GeneSilencer™ was mixed with 25 μl of serum free medium. In a second tube, 25 μl of siRNA diluent was mixed with […] of serum free medium and 20 μl of siRNA (100 nM). After incubation of tubes 1 and 2, at room temperature for 5 min, they were mixed together into tube 3 and incubated for an additional 5 min. The content of tube 3 was added to the cells in the 6 well plates and incubated for 2 days before the addition of the drug. After 48 hours of incubation, doxorubicin (10^−5 M) was added and maintained in culture for an additional 48 hours before analysis. The cells were counted and protein lysates were used to detect cathepsin L expression by Western blot as described above.

cathepsin L = assay: Cathepsin L expression by Western blot in siRNA-transfected Saos2-R cells; assay type: cell-based, human
Excerpt: as §4, with “The content of tube 3 was added to the cells in the 6 well plates and incubated for 2 days before the addition of the drug. After 48 hours of incubation, doxorubicin (10^−5 M) was added and maintained in culture for an additional 48 hours before analysis.” left out

[6] = cathepsin inhibitor 30 mg/Kg + doxorubicin 1.5 mg/Kg

For `CCCNC(=O)[C@H]1O[C@@H]1C(=O)N[C@H](C(=O)N1CCC[C@H]1C(=O)O)[C@@H](C)CC` (relative stereo) [cathepsin B inhibitor], the “cathepsin L activity (arbitrary units) in presence of inhibitor” value (“cathepsin L activity … of inhibitor” below) (Purified cathepsin L) was 3.5e+5 AU.

`CC(C)C[C@H](NC(=O)OCc1ccccc1)C(=O)NCC(=O)CNC(=O)[C@H](CC(C)C)NC(=O)OCc1ccccc1` [cathepsin K inhibitor, 1,3-Bis(N-CBZ-Leu-NH)-2-propanonel,3 -Di(N-carbonbenzoyloxy-L-leucyl)amino acetone] was tested, and the “cathepsin L activity … of inhibitor” value (Purified cathepsin L) was 1e+5 AU.

With `CC[C@H](C)[C@H](NS(=O)(=O)c1ccc2ccccc2c1)C(=O)N[C@H](C=O)Cc1c[nH]c2ccccc12` [cathepsin L inhibitor (Napsule-Ile-Tryp), Napsule-Ile-Tryp] the “viable cells, doxorubicin plus cathepsin L inhibitor, first concentration” value [1] was “about 80%” and the “viable cells, doxorubicin plus cathepsin L inhibition, first concentration” value [2] was “about 90%”.

With `CC(C)CC(NC(=O)C(Cc1ccccc1)NC(=O)OCc1ccccc1)C(=O)C=O.O` (stereo not drawn) [cathepsin S inhibitor, Z-Phe-Leu-COCHO.H2O] the “cathepsin L activity … of inhibitor” value (Purified cathepsin L) was 3e+5 AU.

For `O=P1(N(CCCl)CCCl)NCCCO1` (stereo not shown) [cyclophosphamide], the viability at 100 µM [3] was ~70%, the viability at 10 µM [3] was ~70% and the viability at 1 µM [3] was ~80%. It also gave a viability at 0.1 µM [3] of ~95%.

With `COc1cc([C@@H]2c3cc4c(cc3[C@@H](O[C@@H]3O[C@@H]5CO[C@@H](C)O[C@H]5[C@H](O)[C@H]3O)[C@H]3COC(=O)[C@H]23)OCO4)cc(OC)c1O` [etoposide] the viability at 100 µM [3] was ~10%, the viability at 10 µM [3] was ~70% and the viability at 1 µM [3] was ~90%. For the same compound, the viability at 0.1 µM [3] was ~95%.

With `O=C[C@H](Cc1ccc(O)cc1)NC(=O)[C@H](Cc1ccccc1)NC(=O)OCc1ccccc1` [iCL, Z-Phe-Tyr-aldehyde] (Cbz-Phe-Tyr-aldehyde) the “tumor volume reduction at day 27 greater than doxorubicin alone, co-administered with doxorubicin” value [4, 6] was “about 94%”, the “tumor volume reduction at day 27 greater than the control, co-administered with doxorubicin” value [4, 6] was “about 95%” and the “tumor volume reduction at day 27 greater than the control, inhibitor alone” value ([4]; cathepsin inhibitor alone 30 mg/Kg) was “about 60%”. The “tumor volume reduction at day 27 greater than doxorubicin, inhibitor alone” value ([4]; cathepsin inhibitor alone 30 mg/Kg vs doxorubicin 1.5 mg/Kg) was “about 50%”, the “average tumor volume on day 27, combination with doxorubicin” value ([4]; nude mice, i.p. on day 11, 14, 17, Dox 1.5 mg/Kg+iCL 30 mg/Kg) was “approximately 100 mm^3” and the “average tumor volume on day 27, single agent” value ([4]; nude mice, i.p. on day 11, 14, 17, doxorubicin alone 1.5 mg/Kg or iCL alone 30 mg/Kg) was “approximately 800 mm^3”.

With `CC(=O)N[C@@H](CSC(=O)[C@]1([C@@H](O)C(C)C)NC(=O)[C@H](C)[C@@H]1O)C(=O)O` [lactacystin, Lactacystin] the “cathepsin L activity … of inhibitor” value (Purified cathepsin L) was 4.25e+5 AU.

`N[C@@H](Cc1ccc(N(CCCl)CCCl)cc1)C(=O)O` [melphalan] was tested, and the viability at 1 µM [3] was ~0%, the viability at 0.1 µM [3] was ~30% and the viability at 0.01 µM [3] was ~60%.

With `O=C1c2c(O)ccc(O)c2C(=O)c2c(NCCNCCO)ccc(NCCNCCO)c21` [mitoxantrone] the viability at 1 µM [3] was ~5%, the viability at 0.1 µM [3] was ~10% and the viability at 0.01 µM [3] was ~40%.

`CC/C(=C(\c1ccccc1)c1ccc(OCCN(C)C)cc1)c1ccccc1` [tamoxifen] gave a viability at 10 µM [3] of ~0%, a viability at 1 µM [3] of ~60% and a viability at 0.1 µM [3] of ~60%. For the same compound, the viability at 0.01 µM [3] was ~75%.

`CC[C@]1(O)C[C@@H]2CN(CCc3c([nH]c4ccccc34)[C@@](C(=O)OC)(c3cc4c(cc3OC)N(C)[C@H]3[C@@](O)(C(=O)OC)[C@H](OC(C)=O)[C@]5(CC)C=CCN6CC[C@]43[C@@H]65)C2)C1` [vinblastine] gave an IC50 (SKN-SH wild type cells) of ~100 nM and an IC50 (SKN-SH/R cells) of ~5620 nM.

“siRNA: human cathepsin L siRNA based on nucleotides 91-111 of the cathepsin L cDNA (SEQ ID NO: 2), synthesized by Dharmacon (UUCACCUUCCGCUACGUGUUG; listed as RNA, chemistry not given here; listed as Homo sapiens)” was tested, and the “inhibition of cell proliferation, combination of siRNA and doxorubicin” value ([5]; doxorubicin 10^−5 M) was ~90%, the “cell number, in combination with doxorubicin” value ([5]; doxorubicin 10^−5 M for 48 hours, untreated 1.6e+6 AU) was 1.5e+5 AU and the “cell number, siRNA transfection alone” value ([5]; untreated 1.6e+6 AU) was 8.0e+5 AU. For the same compound, the “cathepsin L expression (Western blot), siRNA alone” value (cathepsin L; Saos2-R cells transfected with siRNA) was “completely diminished” and the “cathepsin L expression (Western blot), siRNA and doxorubicin” value (cathepsin L; Saos2-R cells transfected with siRNA and treated with doxorubicin 10^−5 M) was “completely diminished”.
